# Tested on: MV-4-11 cells
# Assay: Gene expression microarray analysis (Affymetrix PrimeView) and GSEA
# Format: cell-based, human
# Design: RFU PODN (11730768_x_at) / Fold change /veh PODN (11730768_x_at) / RFU LINC00158 (11744669_a_at) / Fold change /veh LINC00158 (11744669_a_at) / RFU DUSP10 (11751237_a_at) / Fold change /veh DUSP10 (11751237_a_at) / RFU ID3 (11757404_x_at) / Fold change /veh ID3 (11757404_x_at) / RFU PLEKHG5 (11737974_s_at) / Fold change /veh PLEKHG5 (11737974_s_at) / RFU LRRC4B (11730491_at) / Fold change /veh LRRC4B (11730491_at) / RFU GIMAP4 (11747438_a_at) / Fold change /veh GIMAP4 (11747438_a_at) / RFU KRT8 (11758183_x_at) / Fold change /veh KRT8 (11758183_x_at) / RFU CNN1 (11734310_a_at) / Fold change /veh CNN1 (11734310_a_at) / RFU VPS37D (11726825_at) / Fold change /veh VPS37D (11726825_at) / RFU C10orf10 (11716522_x_at) / Fold change /veh C10orf10 (11716522_x_at) / RFU KIR2DL2 /// KIR2DL4 /// KIR2DL5A /// KIR2DL5B /// KIR2DS1 /// KIR2DS2 /// KIR2DS3 /// KIR2DS4 /// KIR3DL3 /// KIR3DL3 /// KIR3DS1 (11738374_at) / Fold change /veh KIR2DL2 /// KIR2DL4 /// KIR2DL5A /// KIR2DL5B /// KIR2DS1 /// KIR2DS2 /// KIR2DS3 /// KIR2DS4 /// KIR3DL3 /// KIR3DL3 /// KIR3DS1 (11738374_at) / RFU C1QL1 (11718748_at) / Fold change /veh C1QL1 (11718748_at) / RFU TMPRSS4 (11747572_a_at) / Fold change /veh TMPRSS4 (11747572_a_at) / RFU HAMP (11756126_x_at) / Fold change /veh HAMP (11756126_x_at) / RFU RNFT2 (11725882_a_at) / Fold change /veh RNFT2 (11725882_a_at) / RFU NR4A2 (11747474_a_at) / Fold change /veh NR4A2 (11747474_a_at) / RFU ABCC12 (11746883_a_at) / Fold change /veh ABCC12 (11746883_a_at) / RFU TMEM136 (11760407_x_at) / Fold change /veh TMEM136 (11760407_x_at) / RFU CLDN22 /// WWC2 (11732394_at) / Fold change /veh CLDN22 /// WWC2 (11732394_at) / RFU HLA-DPB1 (11760878_x_at) / Fold change /veh HLA-DPB1 (11760878_x_at) / RFU SPINT1 (11716480_a_at) / Fold change /veh SPINT1 (11716480_a_at) / RFU GAP43 (11754022_s_at) / Fold change /veh GAP43 (11754022_s_at) / RFU A4GNT (11735810_at) / Fold change /veh A4GNT (11735810_at) / RFU PRB3 (11715151_x_at) / Fold change /veh PRB3 (11715151_x_at) / RFU TUBB4B (11761932_at) / Fold change /veh TUBB4B (11761932_at) / RFU CAPN14 (11732068_a_at) / Fold change /veh CAPN14 (11732068_a_at) / RFU TMCC2 (11721928_a_at) / Fold change /veh TMCC2 (11721928_a_at) / RFU IRGQ (11745062_a_at) / Fold change /veh IRGQ (11745062_a_at) / RFU FAM174B (11720279_a_at) / Fold change /veh FAM174B (11720279_a_at) / RFU TMPRSS4 (11748680_a_at) / Fold change /veh TMPRSS4 (11748680_a_at) / RFU FAM212B (11763350_a_at) / Fold change /veh FAM212B (11763350_a_at) / RFU PLEKHG5 (11743358_a_at) / Fold change /veh PLEKHG5 (11743358_a_at) / RFU ZSCAN30 (11745921_a_at) / Fold change /veh ZSCAN30 (11745921_a_at) / RFU CMKLR1 (11741424_a_at) / Fold change /veh CMKLR1 (11741424_a_at) / RFU LOC101060620 /// MAPK8IP1 (11723275_at) / Fold change /veh LOC101060620 /// MAPK8IP1 (11723275_at) / RFU SPTSSB (11747773_x_at) / Fold change /veh SPTSSB (11747773_x_at) / RFU PRSS12 (11739890_at) / Fold change /veh PRSS12 (11739890_at) / RFU BIN1 (11741810_x_at) / Fold change /veh BIN1 (11741810_x_at) / RFU WNT11 (11732464_a_at) / Fold change /veh WNT11 (11732464_a_at) / RFU C10orf10 (11716521_a_at) / Fold change /veh C10orf10 (11716521_a_at) / RFU C5orf56 (11738089_at) / Fold change /veh C5orf56 (11738089_at) / RFU CYB561 (11721691_x_at) / Fold change /veh CYB561 (11721691_x_at) / RFU ANKRD19P (11752326_a_at) / Fold change /veh ANKRD19P (11752326_a_at) / RFU OR2T12 /// OR2T33 /// OR2T8 (11738714_s_at) / Fold change /veh OR2T12 /// OR2T33 /// OR2T8 (11738714_s_at) / RFU VCAN (11748164_a_at) / Fold change /veh VCAN (11748164_a_at) / RFU JSRP1 (11732532_at) / Fold change /veh JSRP1 (11732532_at) / RFU KRTAP10-11 (11738290_x_at) / Fold change /veh KRTAP10-11 (11738290_x_at) / RFU MYO3A (11730013_a_at) / Fold change /veh MYO3A (11730013_a_at) / RFU EBF3 (11725865_a_at) / Fold change /veh EBF3 (11725865_a_at) / RFU CAMK2N1 (11719241_x_at) / Fold change /veh CAMK2N1 (11719241_x_at) / RFU C5orf56 (11738088_a_at) / Fold change /veh C5orf56 (11738088_a_at) / RFU OLFML3 (11715873_a_at) / Fold change /veh OLFML3 (11715873_a_at) / RFU LOC100653217 /// NTM (11731650_a_at) / Fold change /veh LOC100653217 /// NTM (11731650_a_at) / RFU MAPK11 (11762145_a_at) / Fold change /veh MAPK11 (11762145_a_at) / RFU FIZ1 (11724087_x_at) / Fold change /veh FIZ1 (11724087_x_at) / RFU OASL (11726364_x_at) / Fold change /veh OASL (11726364_x_at) / RFU SOX15 (11748057_x_at) / Fold change /veh SOX15 (11748057_x_at) / RFU CD79A (11719716_a_at) / Fold change /veh CD79A (11719716_a_at) / RFU HIST1H1D (11736915_at) / Fold change /veh HIST1H1D (11736915_at) / RFU CASKIN2 (11723855_a_at) / Fold change /veh CASKIN2 (11723855_a_at) / RFU LOC730098 (11760151_x_at) / Fold change /veh LOC730098 (11760151_x_at) / RFU OR4N2 (11742367_at) / Fold change /veh OR4N2 (11742367_at) / RFU PRRT2 (11749266_a_at) / Fold change /veh PRRT2 (11749266_a_at) / RFU SNX32 (11753110_a_at) / Fold change /veh SNX32 (11753110_a_at) / RFU CDHR5 (11726645_a_at) / Fold change /veh CDHR5 (11726645_a_at) / RFU RCAN1 (11760418_a_at) / Fold change /veh RCAN1 (11760418_a_at) / RFU FAM167A (11723789_a_at) / Fold change /veh FAM167A (11723789_a_at) / RFU FAM26E (11764081_at) / Fold change /veh FAM26E (11764081_at) / RFU ISYNA1 (11749810_s_at) / Fold change /veh ISYNA1 (11749810_s_at) / RFU ACY1 (11761880_at) / Fold change /veh ACY1 (11761880_at) / RFU 11764098_at / Fold change /veh 11764098_at / RFU SAMD14 (11745864_x_at) / Fold change /veh SAMD14 (11745864_x_at) / RFU NPB (11741838_a_at) / Fold change /veh NPB (11741838_a_at) / RFU TMPRSS6 (11731388_a_at) / Fold change /veh TMPRSS6 (11731388_a_at) / RFU KRTAP10-2 (11738614_at) / Fold change /veh KRTAP10-2 (11738614_at) / RFU ARHGAP8 /// PRR5-ARHGAP8 (11727945_x_at) / Fold change /veh ARHGAP8 /// PRR5-ARHGAP8 (11727945_x_at) / RFU KRTAP5-7 /// NADSYN1 (11734609_at) / Fold change /veh KRTAP5-7 /// NADSYN1 (11734609_at) / RFU RASL12 (11751679_a_at) / Fold change /veh RASL12 (11751679_a_at) / RFU CDKN2B (11736163_a_at) / Fold change /veh CDKN2B (11736163_a_at) / RFU PRF1 (11729649_at) / Fold change /veh PRF1 (11729649_at) / RFU, ZNF638 /// ZNF638-IT1 / Fold change vs veh, ZNF638 /// ZNF638-IT1 / RFU, PANK3 / Fold change vs veh, PANK3 / RFU, SH3YL1 / Fold change vs veh, SH3YL1 / RFU, ZEB2 / Fold change vs veh, ZEB2 / RFU, NRIP1 / Fold change vs veh, NRIP1 / RFU, PTTG1IP / Fold change vs veh, PTTG1IP / RFU, CAPN2 / Fold change vs veh, CAPN2 / RFU, MED14 / Fold change vs veh, MED14 / RFU, SNORA58 / Fold change vs veh, SNORA58 / RFU, C1orf63 / Fold change vs veh, C1orf63 / RFU, LRRFIP1 / Fold change vs veh, LRRFIP1 / RFU, NDUFAF7 / Fold change vs veh, NDUFAF7 / RFU, SLC12A2 / Fold change vs veh, SLC12A2 / RFU, IBTK / Fold change vs veh, IBTK / RFU, ESF1 / Fold change vs veh, ESF1 / Fold change vs veh, TMEM50B / RFU, TAOK1 / Fold change vs veh, TAOK1 / RFU, ACBD3 / Fold change vs veh, ACBD3 / RFU, TMA16 / Fold change vs veh, TMA16 / RFU, RWDD3 / Fold change vs veh, RWDD3 / RFU, BCAT1 / Fold change vs veh, BCAT1 / RFU, EDEM3 / Fold change vs veh, EDEM3 / RFU, TMEM33 / Fold change vs veh, TMEM33 / RFU, WDR75 / Fold change vs veh, WDR75 / RFU, AHCTF1 / Fold change vs veh, AHCTF1 / RFU, TFRC / Fold change vs veh, TFRC / RFU, ZDHHC17 / Fold change vs veh, ZDHHC17 / RFU, NOM1 / Fold change vs veh, NOM1 / RFU, ARL8B / Fold change vs veh, ARL8B / RFU, ZBTB11 / Fold change vs veh, ZBTB11 / RFU, TAMM41 / Fold change vs veh, TAMM41 / RFU, KIAA1704 /// LOC100996395 / Fold change vs veh, KIAA1704 /// LOC100996395 / RFU, ING1 / Fold change vs veh, ING1 / RFU, TRMT61B / Fold change vs veh, TRMT61B / RFU, FUBP3 / Fold change vs veh, FUBP3 / RFU, TP53 / Fold change vs veh, TP53 / RFU, TNKS2 / Fold change vs veh, TNKS2 / RFU, ZFP14 / Fold change vs veh, ZFP14 / RFU, ACTR2 / Fold change vs veh, ACTR2 / RFU, PPP3R1 / Fold change vs veh, PPP3R1 / RFU, PIK3R1 / Fold change vs veh, PIK3R1 / RFU, HNRNPA1 / Fold change vs veh, HNRNPA1 / RFU, RNF170 / Fold change vs veh, RNF170 / RFU, ZNF28 / Fold change vs veh, ZNF28 / RFU, RNGTT / Fold change vs veh, RNGTT / RFU, OGT / Fold change vs veh, OGT / RFU, BRD1 / Fold change vs veh, BRD1 / RFU, MARS / Fold change vs veh, MARS / RFU, ZNF655 / Fold change vs veh, ZNF655 / RFU, FAHD1 / Fold change vs veh, FAHD1 / RFU, BDP1 / Fold change vs veh, BDP1 / RFU, LRRCC1 / Fold change vs veh, LRRCC1 / RFU, ARID1A / Fold change vs veh, ARID1A / RFU, ZNF146 / Fold change vs veh, ZNF146 / RFU, ZNF330 / Fold change vs veh, ZNF330 / RFU, GPN3 / Fold change vs veh, GPN3 / RFU, C9orf123 / Fold change vs veh, C9orf123 / RFU, N4BP2L2 / Fold change vs veh, N4BP2L2 / RFU, ARFIP1 / Fold change vs veh, ARFIP1 / RFU, FAM179B / Fold change vs veh, FAM179B / RFU, BCL10 / Fold change vs veh, BCL10 / RFU, UHRF1BP1L / Fold change vs veh, UHRF1BP1L / RFU, BET1 / Fold change vs veh, BET1 / RFU, CNOT2 / Fold change vs veh, CNOT2 / RFU, ZNF268 / Fold change vs veh, ZNF268 / Fold change vs veh, ZNF507 / RFU, DGCR2 / Fold change vs veh, DGCR2 / RFU, WDSUB1 / Fold change vs veh, WDSUB1 / Fold change vs veh, HSP90B1 /// MIR3652 / RFU, ADSS / Fold change vs veh, ADSS / RFU, GK / Fold change vs veh, GK / RFU, ZNF148 / Fold change vs veh, ZNF148 / RFU, TAF9 / Fold change vs veh, TAF9 / RFU, SLC1A5 / Fold change vs veh, SLC1A5 / RFU, SLMO2 / Fold change vs veh, SLMO2 / RFU, ABCC4 / Fold change vs veh, ABCC4 / RFU, LOC101060439 /// RAP1B / Fold change vs veh, LOC101060439 /// RAP1B / RFU, RFX7 / Fold change vs veh, RFX7 / RFU, GTPBP10 / Fold change vs veh, GTPBP10 / RFU, CNEP1R1 / Fold change vs veh, CNEP1R1 / RFU, BIVM-ERCC5 /// ERCC5 / Fold change vs veh, BIVM-ERCC5 /// ERCC5 / RFU, ILF3 / Fold change vs veh, ILF3 / RFU 11762660_at / Fold change /veh 11762660_at / RFU VCAN (11757783_s_at) / Fold change /veh VCAN (11757783_s_at) / RFU DDX43 (11728927_at) / Fold change /veh DDX43 (11728927_at) / RFU KRT8 (11758188_x_at) / Fold change /veh KRT8 (11758188_x_at) / RFU NKD1 (11759106_at) / Fold change /veh NKD1 (11759106_at) / RFU SRD5A1 (11742802_a_at) / Fold change /veh SRD5A1 (11742802_a_at) / RFU TPSAB1 /// TPSB2 (11721975_s_at) / Fold change /veh TPSAB1 /// TPSB2 (11721975_s_at) / RFU GSTM3 (11746129_a_at) / Fold change /veh GSTM3 (11746129_a_at) / RFU IL23R (11737362_x_at) / Fold change /veh IL23R (11737362_x_at) / RFU TMEM51 (11727254_a_at) / Fold change /veh TMEM51 (11727254_a_at) / RFU PIWIL2 (11732686_x_at) / Fold change /veh PIWIL2 (11732686_x_at) / RFU ORM1 (11744905_x_at) / Fold change /veh ORM1 (11744905_x_at) / RFU CCDC152 (11743942_at) / Fold change /veh CCDC152 (11743942_at) / RFU ECM1 (11717891_a_at) / Fold change /veh ECM1 (11717891_a_at) / RFU IL23R (11748794_a_at) / Fold change /veh IL23R (11748794_a_at) / RFU TNFAIP8L3 (11732012_x_at) / Fold change /veh TNFAIP8L3 (11732012_x_at) / RFU MBOAT4 (11741988_at) / Fold change /veh MBOAT4 (11741988_at) / RFU 11764193_at / Fold change /veh 11764193_at / RFU TMEM53 (11763286_at) / Fold change /veh TMEM53 (11763286_at) / RFU MAGEB2 (11727129_at) / Fold change /veh MAGEB2 (11727129_at) / RFU TMEM200A (11744735_a_at) / Fold change /veh TMEM200A (11744735_a_at) / RFU CCDC152 (11751479_a_at) / Fold change /veh CCDC152 (11751479_a_at) / RFU FAM211A (11726209_a_at) / Fold change /veh FAM211A (11726209_a_at) / RFU RGS16 (11746705_a_at) / Fold change /veh RGS16 (11746705_a_at) / RFU VCAN (11755009_s_at) / Fold change /veh VCAN (11755009_s_at) / RFU RHOB (11743442_s_at) / Fold change /veh RHOB (11743442_s_at) / RFU RGS16 (11720943_a_at) / Fold change /veh RGS16 (11720943_a_at) / RFU RGS16 (11720944_at) / Fold change /veh RGS16 (11720944_at) / RFU, VPS4B / Fold change vs veh, VPS4B / RFU, CREB1 / Fold change vs veh, CREB1 / RFU, DNAJC13 / Fold change vs veh, DNAJC13 / RFU, GNAQ / Fold change vs veh, GNAQ / RFU, CDK5R1 / Fold change vs veh, CDK5R1 / RFU, ZRANB3 / Fold change vs veh, ZRANB3 / RFU, CUL4A / Fold change vs veh, CUL4A / RFU, CCNY / Fold change vs veh, CCNY / RFU, UFL1 / Fold change vs veh, UFL1 / RFU, COG3 / Fold change vs veh, COG3 / RFU, DIAPH2 / Fold change vs veh, DIAPH2 / RFU, SKA2 / Fold change vs veh, SKA2 / RFU, AFF3 / Fold change vs veh, AFF3 / RFU, LMF1 / Fold change vs veh, LMF1 / RFU, IPO11 / Fold change vs veh, IPO11 / RFU, DFFB / Fold change vs veh, DFFB / RFU, FOXP1 / Fold change vs veh, FOXP1 / RFU, CARD8 / Fold change vs veh, CARD8 / RFU, STRN3 / Fold change vs veh, STRN3 / RFU, ADK / Fold change vs veh, ADK / RFU, RASSF2 / Fold change vs veh, RASSF2 / RFU, WIPF1 / Fold change vs veh, WIPF1 / RFU, LARP1B / Fold change vs veh, LARP1B / RFU, RASA1 / Fold change vs veh, RASA1 / RFU, RB1 / Fold change vs veh, RB1 / RFU, PPFIA1 / Fold change vs veh, PPFIA1 / RFU, MAT2A / Fold change vs veh, MAT2A / RFU, CCT5 / Fold change vs veh, CCT5 / RFU, WDR92 / Fold change vs veh, WDR92 / RFU, CUX1 / Fold change vs veh, CUX1 / RFU, TTC7A / Fold change vs veh, TTC7A / RFU, TMEM135 / Fold change vs veh, TMEM135 / RFU, DEPTOR / Fold change vs veh, DEPTOR / RFU, CPM / Fold change vs veh, CPM / RFU, DNAJB6 / Fold change vs veh, DNAJB6 / RFU, CACNA2D3 / Fold change vs veh, CACNA2D3 / RFU, DTX4 / Fold change vs veh, DTX4 / RFU, TFCP2 / Fold change vs veh, TFCP2 / RFU, GMCL1 /// GMCL1P1 / Fold change vs veh, GMCL1 /// GMCL1P1 / RFU, AEBP2 / Fold change vs veh, AEBP2 / RFU, SNHG1 /// SNORD22 /// SNORD25 /// SNORD26 /// SNORD27 /// SNORD28 /// SNORD29 /// SNORD31 / Fold change vs veh, SNHG1 /// SNORD22 /// SNORD25 /// SNORD26 /// SNORD27 /// SNORD28 /// SNORD29 /// SNORD31 / Fold change (Aza/veh), C12orf56 (ProbeSet 11735607_a_at) / Fold change (ACY-1035/veh), C12orf56 (ProbeSet 11735607_a_at) / Fold change (Aza/veh), FGFR1OP (ProbeSet 11751329_s_at) / Fold change (ACY-1035/veh), FGFR1OP (ProbeSet 11751329_s_at) / Fold change (Aza/veh), VPS36 (ProbeSet 11739960_a_at) / Fold change (ACY-1035/veh), VPS36 (ProbeSet 11739960_a_at) / RFU SYPL1 (11715823_x_at) / Fold change /veh SYPL1 (11715823_x_at) / RFU IGFBP7 (11715501_s_at) / Fold change /veh IGFBP7 (11715501_s_at) / RFU REEP3 (11722064_at) / Fold change /veh REEP3 (11722064_at) / RFU IGLL1 (11728026_x_at) / Fold change /veh IGLL1 (11728026_x_at): dose or concentration left out as unconfirmed
# Settings: MV-4-11 cells, 48 hours
smiles,measurement,value
Nc1ncn([C@@H]2O[C@H](CO)[C@@H](O)[C@H]2O)c(=O)n1 [azacitidine],Fold change /veh TMPRSS4 (11747572_a_at),1.01

# Reference: PMC5218480 (PLoS ONE, 2017)
